Source: ChEMBL document CHEMBL1629509, “Design, synthesis and inhibitory activity against Mycobacterium tuberculosis thymidine monophosphate kinase of acyclic nucleoside analogues with a distal imidazoquinolinone” (Eur J Med Chem, 2010)
Active and inactive are the calls of the source. The calls are words filed in the database; no cut-off is given here.

Each compound was assayed on Mycobacterium tuberculosis variant bovis BCG (assay: Antimycobacterial activity against Mycobacterium bovis BCG Pasteur assessed as growth inhibition at 160 ug/ml by resazurin microtiter plate assay).
Type: functional, organism-based
With `Cc1cn(C/C=C/Cn2c(=O)n3c4c(cc(N)cc42)CCC3)c(=O)[nH]c1=O` the Activity was “inactive”. With `CC(=O)NC1Cc2cccc3c2n(c(=O)n3C/C=C/Cn2cc(C)c(=O)[nH]c2=O)C1` (configuration not stated) the Activity was “inactive”. For `O=c1[nH]c(=O)n(C/C=C/CN2c3cccc4c3N(CCC4)S2(=O)=O)cc1Br`, the Activity was “inactive”. `Cc1cn(C/C=C/CN2c3cccc4c3N(CCC4)S2(=O)=O)c(=O)[nH]c1=O` was tested, and the Activity was “inactive”. With `CC(=O)Nc1cc2c3c(c1)n(C/C=C/Cn1cc(C)c(=O)[nH]c1=O)c(=O)n3CCC2` the Activity was “inactive”. With `Cc1cn(C/C=C/Cn2c(=O)n3c4c(cccc42)CCC3)c(=O)[nH]c1=O` the Activity was “inactive”. `Cc1cn(C/C=C/Cn2c(=O)n3c4c(cccc42)CC(N)C3)c(=O)[nH]c1=O` (configuration not stated) was tested, and the Activity was “inactive”.
